One may read the fold induction as the signal under treatment as a multiple of the control signal. In general, inhibition refers to the drop in the measured response relative to a control, in per cent.

Experimental findings from US20230183179A1, “NOVEL CELL METABOLISM MODULATING COMPOUNDS AND USES THEREOF” (CRESCENTA BIOSCIENCES, priority 2020, published 2023) are described below.

Each structure is given as a SMILES string. Bounds are passed on as bounds.

Experiment [1] deals with differentiated 3T3-L1 mouse adipocyte cells. The experiment can be described thus: Adipocyte glucose consumption in differentiated 3T3-L1 cells (colorimetric glucose assay of the medium). The settings on record: 3T3-L1, 24 h, compound 10 μM, loss of glucose from culture medium, mean fold change (compound/DMSO). The format is cell-based. Put shortly: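 Differentiated 3T3-L1 mouse adipocytes (rosiglitazone/dexamethasone/IBMX/insulin induction, day 11) treated 24 h with compounds at 10 μM, 0.1% DMSO final. Medium glucose measured colorimetrically; consumption taken as glucose loss from medium versus cell-free control, expressed as mean fold change compound/DMSO ±SD.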

Experiment [2] has as its target T1, His6 tagged human recombinant FABP4 (Homo sapiens, UniProt P15090).
T1 construct: purchased Cayman Chemicals 10009549
The experiment can be described thus: FABP4 TR-FRET assay: displacement of fluorescent fatty acid BODIPY FL C12. Particulars: inhibition of BODIPY FL C12 binding to His6-FABP4; 1.2 μL of 1.085 mM compound in DMSO per well; triplicates, mean percent inhibition. Put shortly:
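TR-FRET displacement of BODIPY FL C12 from His6-FABP4 bound by Tb-anti-His6 antibody, in Tris pH 7.4 buffer with γ-globulins, NP-40 and DTT; compound stock 1.085 mM in DMSO. Read after 10 min at room temperature as 520/615 nm ratio; mean % inhibition versus DMSO from triplicates.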

T1 sequence (P15090 whole entry): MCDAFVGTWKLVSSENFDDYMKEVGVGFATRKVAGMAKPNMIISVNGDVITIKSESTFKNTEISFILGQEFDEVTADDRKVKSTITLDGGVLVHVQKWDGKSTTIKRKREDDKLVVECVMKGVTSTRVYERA

`CCCCc1ccc2nc(N(C)CC(=O)O)cc(-c3ccc(C#N)cc3)c2c1` [2-{[6-butyl-4-(4-cyanophenyl)quinolin-2-yl](methyl)amino}acetic acid]: the fold induction at 10 µM in experiment [1] was found to be 1.18. Further, the inhibition at 1085 µM (stock) in experiment [2] was determined as 16.8%.
Turning to `CCCCCCCCc1ccc2nc(N(C)CC(=O)O)cc(-c3ccc(F)cc3)c2c1` [2-{[4-(4-fluorophenyl)-6-octylquinolin-2-yl](methyl)amino}acetic acid], the fold induction at 10 µM in experiment [1] is 1.28. In addition, in experiment [2], the inhibition at 1085 µM (stock) came to 53.8%.
The matching figures for `CCCCc1ccc2nc(N(C)C(C(=O)O)C(C)C)cc(-c3cccc(C#N)c3)c2c1` (stereo not shown) [N-(6-butyl-4-(3-cyanophenyl)quinolin-2-yl)-N-methylvaline?]: 1.18 and 21%.
For the compound `CCCCc1ccc2nc(N(C)CC(=O)O)cc(-c3cccc(C#N)c3)c2c1` [2-{[6-butyl-4-(3-cyanophenyl)quinolin-2-yl](methyl)amino}acetic acid], in experiment [1], the fold induction at 10 µM amounted to 1.33. For the same compound, the inhibition at 1085 µM (stock) in experiment [2] was found to be 33.2%.
Take `CCCCCc1ccc2nc(OCC(=O)O)cc(-c3cccc(C#N)c3)c2c1` [2-{[4-(3-cyanophenyl)-6-pentylquinolin-2-yl]oxy}acetic acid]: in experiment [1], the fold induction at 10 µM came to 1.01. In addition, the inhibition at 1085 µM (stock) in experiment [2] amounted to 10.6%.
Regarding `CCCCCc1ccc2nc(N(C)CC(=O)O)cc(-c3ccc(F)cc3)c2c1` [2-{[4-(4-fluorophenyl)-6-pentylquinolin-2-yl](methyl)amino}acetic acid], the fold induction at 10 µM in experiment [1] worked out at 1.34. Further, the inhibition at 1085 µM (stock) in experiment [2] came to 80.9%.
For `CCc1ccc2nc(OCC(=O)O)cc(-c3ccccc3)c2c1` [2-[(6-ethyl-4-phenylquinolin-2-yl)oxy]acetic acid], the fold induction at 10 µM in experiment [1] was 0.97. Moreover, the inhibition at 1085 µM (stock) in experiment [2] worked out at 31.9%.
The matching figures for `CCCCCCc1ccc2nc(N(C)CC(=O)O)cc(-c3ccncc3)c2c1` [2-{[6-hexyl-4-(pyridin-4-yl)quinolin-2-yl](methyl)amino}acetic acid]: 1.17 and 51.4%.
Turning to `CCCCCc1ccc2nc(OCC(=O)O)cc(-c3ccccc3)c2c1` [2-[(6-pentyl-4-phenylquinolin-2-yl)oxy]acetic acid], the fold induction at 10 µM in experiment [1] was 1.05. In experiment [2], the inhibition at 1085 µM (stock) is 55.1%.
`CCCCCCCCc1ccc2nc(N(C)CC(=O)O)cc(Oc3ccc(F)cc3)c2c1` [2-{[4-(4-fluorophenoxy)-6-octylquinolin-2-yl](methyl)amino}acetic acid]: in experiment [1], the fold induction at 10 µM amounted to 1.41. Besides, the inhibition at 1085 µM (stock) in experiment [2] amounted to 78.7%.
As to `CCCCCCc1ccc2nc(OC(C)C(=O)O)cc(-c3cccc(C#N)c3)c2c1` (stereo not shown) [2-{[4-(3-cyanophenyl)-6-hexylquinolin-2-yl]oxy}propanoic acid], the fold induction at 10 µM in experiment [1] came to 1.19. Further, in experiment [2], the inhibition at 1085 µM (stock) was determined as 3.3%.
For `NC(=O)c1cccc(-c2cc(OCC(=O)O)nc3ccc(Br)cc23)c1` [2-{[6-bromo-4-(3-carbamoylphenyl)quinolin-2-yl]oxy}acetic acid], in experiment [1], the fold induction at 10 µM worked out at 1. Moreover, in experiment [2], the inhibition at 1085 µM (stock) is 19.1%.
For the compound `O=C(O)C1CC(=O)N(c2cc(-c3ccccc3)c3cc(CCc4ccccc4)ccc3n2)C1` (stereo not shown) [5-oxo-1-[4-phenyl-6-(2-phenylethyl)quinolin-2-yl]pyrrolidine-3-carboxylic acid], the fold induction at 10 µM in experiment [1] worked out at 1.24. Further, the inhibition at 1085 µM (stock) in experiment [2] stood at 7.89%.
`CCCCCCCCc1ccc2nc(N(CCC)CC(=O)O)cc(-c3ccc(F)cc3)c2c1` [2-{[4-(4-fluorophenyl)-6-octylquinolin-2-yl](propyl)amino}acetic acid]: the fold induction at 10 µM in experiment [1] is 1.2. Also, the inhibition at 1085 µM (stock) in experiment [2] is 53.1%.
On to `CCCCCCc1ccc2nc(N(C)CC(=O)O)cc(Oc3ccncc3)c2c1` [2-{[6-hexyl-4-(pyridin-4-yloxy)quinolin-2-yl](methyl)amino}acetic acid], for which the fold induction at 10 µM in experiment [1] turned out to be 1.02. In experiment [2], the inhibition at 1085 µM (stock) came out at 10.7%.
For the compound `CCCCc1ccc2nc(N(C)CC(C)C(=O)O)cc(-c3ccc(F)cc3)c2c1` (stereo not shown) [3-{[6-butyl-4-(4-fluorophenyl)quinolin-2-yl](methyl)amino}-2-methylpropanoic acid], the fold induction at 10 µM in experiment [1] amounted to 1.34. For the same compound, in experiment [2], the inhibition at 1085 µM (stock) amounted to 74%.
The like results for `CCCCCCc1ccc2nc(N(C)CC(=O)O)cc(N3CCC(F)(F)C3)c2c1` [2-{[4-(3,3-difluoropyrrolidin-1-yl)-6-hexylquinolin-2-yl](methyl)amino}acetic acid] were, in that order, 1.28 and 50.5%.
On to `CN(CC(=O)O)c1cc(-c2ccccc2)c2cc(CCN3CCCCC3)ccc2n1` [2-[methyl({4-phenyl-6-[2-(piperidin-1-yl)ethyl]quinolin-2-yl})amino]acetic acid], for which the fold induction at 10 µM in experiment [1] worked out at 0.96. In addition, the inhibition at 1085 µM (stock) in experiment [2] was less than 0%.
As for `Cc1ccccc1CCc1ccc2nc(N(C)CC(=O)O)cc(-c3ccccc3)c2c1` [2-[methyl({6-[2-(2-methylphenyl)ethyl]-4-phenylquinolin-2-yl})amino]acetic acid], the fold induction at 10 µM in experiment [1] amounted to 1.4. Besides, the inhibition at 1085 µM (stock) in experiment [2] is 38.2%.
The like results for `CN(CC(=O)O)c1cc(-c2ccncc2)c2cc(CCc3ccccn3)ccc2n1` [2-[methyl({6-[2-(pyridin-2-yl)ethyl]-4-(pyridin-4-yl)quinolin-2-yl})amino]acetic acid] were, in that order, 1.06 and 16.1%.
With `CN(CC(=O)O)c1cc(-c2ccccc2)c2cc(CCc3cccnc3)ccc2n1` [2-[methyl({4-phenyl-6-[2-(pyridin-3-yl)ethyl]quinolin-2-yl})amino]acetic acid], in experiment [1], the fold induction at 10 µM is 1.41. The inhibition at 1085 µM (stock) in experiment [2] is 32%.
Turning to `CC(C(=O)O)N(C)c1cc(-c2ccccc2)c2cc(Cl)ccc2n1` (stereo not shown) [2-[(6-chloro-4-phenylquinolin-2-yl)(methyl)amino]propanoic acid], in experiment [1], the fold induction at 10 µM stood at 1.18. The inhibition at 1085 µM (stock) in experiment [2] amounted to 97.4%.
The matching figures for `CN(CC(=O)O)c1cc(-c2ccccc2)c2cc(Br)ccc2n1` [2-[(6-bromo-4-phenylquinolin-2-yl)(methyl)amino]acetic acid]: 1.26 and 109%.
In the case of `CCCCc1ccc2nc(N3CCOC(C(=O)O)C3)cc(-c3ccccc3)c2c1` (stereo not shown) [4-(6-butyl-4-phenylquinolin-2-yl)morpholine-2-carboxylic acid], in experiment [1], the fold induction at 10 µM is 1.07. For the same compound, in experiment [2], the inhibition at 1085 µM (stock) stood at 21.1%.
The matching figures for `CCCCc1ccc2nc(N(C)C(C)CC(=O)O)cc(-c3ccccc3)c2c1` (stereo not shown) [3-[(6-butyl-4-phenylquinolin-2-yl)(methyl)amino]butanoic acid]: 1.04 and 103%.
The matching figures for `CN(CC(=O)O)c1cc(-c2ccccc2)c2cc(CCN3CCOCC3)ccc2n1` [2-[methyl({6-[2-(morpholin-4-yl)ethyl]-4-phenylquinolin-2-yl})amino]acetic acid]: 1.13 and 6.78%.
On to `CCCCc1ccc2nc(N(C)CC(=O)O)cc(-c3ccccc3F)c2c1` [2-{[6-butyl-4-(2-fluorophenyl)quinolin-2-yl](methyl)amino}acetic acid], for which the fold induction at 10 µM in experiment [1] is 1.33. Further, the inhibition at 1085 µM (stock) in experiment [2] stood at 67%.
`CCCCC(=O)Nc1ccc2nc(N(C)CC(=O)O)cc(-c3ccccc3)c2c1` [2-[methyl(6-pentanamido-4-phenylquinolin-2-yl)amino]acetic acid]: the fold induction at 10 µM in experiment [1] was 0.98. In addition, in experiment [2], the inhibition at 1085 µM (stock) is 28.7%.
On to `CCCCCCc1ccc2nc(N(C)CC(C)C(=O)O)cc(-c3cccnc3)c2c1` (stereo not shown) [3-{[6-hexyl-4-(pyridin-3-yl)quinolin-2-yl](methyl)amino}-2-methylpropanoic acid], for which the fold induction at 10 µM in experiment [1] came to 1.16. Besides, the inhibition at 1085 µM (stock) in experiment [2] amounted to 54.7%.
For `CCCCc1ccc2nc(OCC(=O)O)cc(-c3ccccc3)c2c1` [2-[(6-butyl-4-phenylquinolin-2-yl)oxy]acetic acid], in experiment [1], the fold induction at 10 µM turned out to be 1.12. The inhibition at 1085 µM (stock) in experiment [2] is 11.3%.
On to `CCCCc1ccc2nc(N(C)CC(=O)O)cc(-c3ccc(O)cc3)c2c1` [2-{[6-butyl-4-(4-hydroxyphenyl)quinolin-2-yl](methyl)amino}acetic acid], for which, in experiment [1], the fold induction at 10 µM turned out to be 1.26. The inhibition at 1085 µM (stock) in experiment [2] worked out at 60.5%.
With `CCCCCCc1ccc2nc(N(C)CC(=O)O)cc(N3CCOCC3)c2c1` [2-{[6-hexyl-4-(morpholin-4-yl)quinolin-2-yl](methyl)amino}acetic acid], in experiment [1], the fold induction at 10 µM is 1.31. Further, the inhibition at 1085 µM (stock) in experiment [2] was determined as 26.5%.
The like results for `CN(CC(=O)O)c1cc(-c2ccccc2)c2cc(CCc3ccc4nccnc4c3)ccc2n1` [2-[methyl({4-phenyl-6-[2-(quinoxalin-6-yl)ethyl]quinolin-2-yl})amino]acetic acid] were, in that order, 1.33 and 33.6%.
In the case of `CN(CC(=O)O)c1cc(-c2cccc(C(N)=O)c2)c2cc(Br)ccc2n1` [2-{[6-bromo-4-(3-carbamoylphenyl)quinolin-2-yl](methyl)amino}acetic acid], in experiment [1], the fold induction at 10 µM is 1.1. In addition, in experiment [2], the inhibition at 1085 µM (stock) is 93.8%.
Take `N#Cc1cccc(-c2cc(OCC(=O)O)nc3ccc(Br)cc23)c1` [2-{[6-bromo-4-(3-cyanophenyl)quinolin-2-yl]oxy}acetic acid]: in experiment [1], the fold induction at 10 µM stood at 0.99. For the same compound, the inhibition at 1085 µM (stock) in experiment [2] was determined as 19.9%.
